Experimental data as given in ChEMBL document CHEMBL1201862, “PubChem BioAssay data set” (2004).
The source made the active and inactive calls.

Assays:
[1] = biological target: ATP-dependent molecular chaperone HSP82 (Candida albicans (strain WO-1) (Yeast), UniProt C4YTQ8); assay: loss of DOC-induced GRE-beta-galactosidase reporter signal, dose response, Hsp90 inhibitor project, S. cerevisiae, luminescence (AID 2400); assay type: functional, cell-based;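 also: beta-galactosidase luminescence from glucocorticoid response element reporter as proxy for Hsp90 function; inhibitor potency where signal loss means Hsp90 inhibition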
Beta-lactamase [2] = biological target: Beta-lactamase (Pseudomonas aeruginosa, UniProt Q79MP6);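 also: biochemical dose-response test of metallo-beta-lactamase enzyme inhibition, read out by epi-absorbance; purified recombinant IMP-1 metallo-beta-lactamase with nitrocefin as substrate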
Beta-lactamase [3] = biological target: Beta-lactamase (Salmonella choleraesuis (strain SC-B67), UniProt Q5J463)
[4] = NIH-3T3 fibroblast cytotoxicity, dose response, cytotoxicity control, cell-based, fluorescence, Alamar Blue, secondary assay (AID 2327); assay type: functional;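 also: NIH-3T3 mouse fibroblasts cultured with fluconazole at 8 µg/mL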
[5] = biological target: T1, Microphthalmia-associated transcription factor (Homo sapiens, UniProt O75030); assay: TRPM1 promoter luciferase signal decrease, dose response, MITF inhibitor project, cell-based, SK-MEL-5, cherry-picked, set 3 (AID 493073); assay type: functional
T1 sequence (O75030 whole entry): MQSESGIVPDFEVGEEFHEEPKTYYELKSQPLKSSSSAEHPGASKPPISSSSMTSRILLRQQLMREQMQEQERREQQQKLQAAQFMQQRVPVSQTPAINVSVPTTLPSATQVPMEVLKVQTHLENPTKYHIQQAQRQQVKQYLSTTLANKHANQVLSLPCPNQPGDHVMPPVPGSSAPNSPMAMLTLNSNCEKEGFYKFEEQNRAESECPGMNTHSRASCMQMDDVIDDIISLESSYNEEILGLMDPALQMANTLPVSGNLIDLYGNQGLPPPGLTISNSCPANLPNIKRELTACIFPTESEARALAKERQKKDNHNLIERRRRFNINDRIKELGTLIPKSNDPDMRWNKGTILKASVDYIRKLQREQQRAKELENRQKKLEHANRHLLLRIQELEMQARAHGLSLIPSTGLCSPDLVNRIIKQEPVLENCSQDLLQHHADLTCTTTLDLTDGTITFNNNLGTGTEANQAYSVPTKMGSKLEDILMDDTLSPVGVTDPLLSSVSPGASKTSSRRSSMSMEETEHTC

[6] = C. albicans growth with fluconazole, confirmation, fluorescence, retest (AID 2467); assay type: functional, cell-based
[7] = biological target: Serine/threonine-protein phosphatase (Candida dubliniensis (strain CD36 / CBS 7987 / NCPF 3949 / NRRLY-17841) (Yeast), UniProt B9W6M3); assay: calcineurin pathway inhibitors in yeast reporter, dose response, S. cerevisiae, CDRE-lacZ, luminescence, secondary (AID 2388); assay type: functional, cell-based;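 also: yeast reporter cells carrying a calcineurin-responsive lacZ construct stimulated with calcium chloride; luminescent beta-galactosidase reporter signal in whole cells rather than isolated phosphatase activity; potency for inhibition where a drop in reporter signal means calcineurin blockade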
[8] = biological target: T2, Sentrin-specific protease 8 (Homo sapiens, UniProt Q96LD8); assay: SENP8 protease inhibitors, SAR follow-up, biochemical, luminescence (AID 504501); assay type: functional
T2 sequence (Q96LD8 whole entry): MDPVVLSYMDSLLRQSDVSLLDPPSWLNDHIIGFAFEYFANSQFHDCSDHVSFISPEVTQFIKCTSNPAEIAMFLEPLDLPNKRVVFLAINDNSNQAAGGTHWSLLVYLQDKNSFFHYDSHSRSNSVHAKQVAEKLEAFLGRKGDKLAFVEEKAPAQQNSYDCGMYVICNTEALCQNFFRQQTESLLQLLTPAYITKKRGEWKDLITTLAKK

[9] = biological target: T3, Sentrin-specific protease 7 (Homo sapiens, UniProt Q9BQF6); assay: SENP7 protease inhibitors, SAR follow-up, biochemical, luminescence (AID 504497); assay type: functional
T3 sequence (Q9BQF6 whole entry): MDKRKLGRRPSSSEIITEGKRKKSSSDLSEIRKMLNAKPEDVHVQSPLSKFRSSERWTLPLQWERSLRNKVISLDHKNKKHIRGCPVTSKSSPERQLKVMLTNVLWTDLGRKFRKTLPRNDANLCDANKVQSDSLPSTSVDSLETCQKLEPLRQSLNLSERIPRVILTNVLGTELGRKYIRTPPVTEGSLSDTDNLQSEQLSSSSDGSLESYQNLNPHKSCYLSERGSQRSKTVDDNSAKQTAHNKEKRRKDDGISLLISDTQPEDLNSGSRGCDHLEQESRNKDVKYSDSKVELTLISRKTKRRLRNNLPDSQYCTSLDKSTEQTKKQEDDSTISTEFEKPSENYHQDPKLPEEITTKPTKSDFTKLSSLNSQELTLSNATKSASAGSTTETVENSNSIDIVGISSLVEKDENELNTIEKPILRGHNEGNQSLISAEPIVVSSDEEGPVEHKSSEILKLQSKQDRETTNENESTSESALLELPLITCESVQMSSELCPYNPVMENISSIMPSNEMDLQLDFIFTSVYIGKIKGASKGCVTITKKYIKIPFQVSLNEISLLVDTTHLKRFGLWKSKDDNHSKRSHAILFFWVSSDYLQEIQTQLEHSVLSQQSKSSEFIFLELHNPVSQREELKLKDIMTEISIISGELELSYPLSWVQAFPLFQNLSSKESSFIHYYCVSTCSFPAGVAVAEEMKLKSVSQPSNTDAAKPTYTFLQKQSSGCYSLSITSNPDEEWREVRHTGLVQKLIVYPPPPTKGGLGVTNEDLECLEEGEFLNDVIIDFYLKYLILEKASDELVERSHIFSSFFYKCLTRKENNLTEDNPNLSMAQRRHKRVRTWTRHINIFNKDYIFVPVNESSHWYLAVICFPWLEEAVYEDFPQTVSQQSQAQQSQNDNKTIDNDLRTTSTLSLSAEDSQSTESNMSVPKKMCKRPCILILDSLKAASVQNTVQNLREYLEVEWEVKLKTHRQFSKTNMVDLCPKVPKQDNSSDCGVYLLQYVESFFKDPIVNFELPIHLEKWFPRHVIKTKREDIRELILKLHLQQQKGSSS

Caspase-3 = biological target: T4, Caspase-3 (Homo sapiens, UniProt P42574); assay: SAR Analysis of small molecule inhibitors of Sentrin-specific proteases (SENPs) using a Caspase-3 Selectivity assay. [Related pubchem assays (depositor defined):AID2540, AID2599, AID434973, AID489001]; assay type: functional
T4 sequence (P42574 whole entry): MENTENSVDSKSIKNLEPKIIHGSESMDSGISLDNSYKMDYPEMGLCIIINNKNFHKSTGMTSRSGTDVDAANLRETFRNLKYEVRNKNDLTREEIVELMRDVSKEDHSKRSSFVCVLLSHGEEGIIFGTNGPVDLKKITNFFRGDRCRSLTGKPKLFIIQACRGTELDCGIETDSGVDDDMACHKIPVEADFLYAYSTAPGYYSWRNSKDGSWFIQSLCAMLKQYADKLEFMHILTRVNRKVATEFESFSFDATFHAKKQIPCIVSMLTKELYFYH

[10] = biological target: T5, Sentrin-specific protease 6 (Homo sapiens, UniProt Q9GZR1); assay: SAR Analysis of small molecule inhibitors of Sentrin-specific protease 6 (SENP6) using a Luminescent assay. [Related pubchem assays (depositor defined):AID2582, AID2599]; assay type: functional
T5 sequence (Q9GZR1 whole entry): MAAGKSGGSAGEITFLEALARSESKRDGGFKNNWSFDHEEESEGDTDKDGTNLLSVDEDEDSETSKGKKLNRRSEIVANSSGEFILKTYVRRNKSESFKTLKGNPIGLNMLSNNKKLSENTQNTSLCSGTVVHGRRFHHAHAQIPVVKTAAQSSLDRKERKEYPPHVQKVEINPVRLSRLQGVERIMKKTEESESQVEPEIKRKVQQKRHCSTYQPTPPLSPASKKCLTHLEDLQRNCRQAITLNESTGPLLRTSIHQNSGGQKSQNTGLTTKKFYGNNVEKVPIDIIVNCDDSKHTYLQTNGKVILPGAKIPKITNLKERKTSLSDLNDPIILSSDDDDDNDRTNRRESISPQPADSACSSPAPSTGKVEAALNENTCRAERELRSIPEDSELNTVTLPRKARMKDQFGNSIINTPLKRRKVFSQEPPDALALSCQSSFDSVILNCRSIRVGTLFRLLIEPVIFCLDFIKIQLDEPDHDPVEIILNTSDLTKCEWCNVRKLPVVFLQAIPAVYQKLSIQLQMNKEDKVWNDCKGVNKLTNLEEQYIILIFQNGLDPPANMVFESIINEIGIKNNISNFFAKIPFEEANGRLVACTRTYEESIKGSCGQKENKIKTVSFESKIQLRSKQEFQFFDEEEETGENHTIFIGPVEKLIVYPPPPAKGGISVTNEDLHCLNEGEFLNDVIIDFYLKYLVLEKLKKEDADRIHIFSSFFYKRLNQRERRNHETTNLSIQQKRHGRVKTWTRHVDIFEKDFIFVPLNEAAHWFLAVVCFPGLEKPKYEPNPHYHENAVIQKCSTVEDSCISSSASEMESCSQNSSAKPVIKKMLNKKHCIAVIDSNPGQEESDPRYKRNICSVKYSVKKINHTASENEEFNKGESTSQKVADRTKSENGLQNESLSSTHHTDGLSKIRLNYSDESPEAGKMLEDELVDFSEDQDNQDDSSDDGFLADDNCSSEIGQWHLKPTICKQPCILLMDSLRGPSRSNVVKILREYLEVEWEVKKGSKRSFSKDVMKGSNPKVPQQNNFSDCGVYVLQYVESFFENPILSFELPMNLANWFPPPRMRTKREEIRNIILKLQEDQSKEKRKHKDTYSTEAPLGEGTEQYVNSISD

[11] = cytotoxicity in HEK-293T NF-kB-Luc cells, dose response, cytotoxicity control for B/T-cell NF-kB inhibitor project, cell-based, uHTS hits (AID 489019); assay type: functional;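 also: IC50 reflects cytotoxicity as loss of cell viability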
[12] = cytotoxicity toward NIH3T3 fibroblasts, dose response, counter-screen, cell-based, ATP luminescence, mouse fibroblasts (AID 2010); assay type: functional;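 also: cells exposed to compound for about 90 hours before reading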
[13] = biological target: T6, COUP transcription factor 2 (Homo sapiens, UniProt P24468); assay: Luminescence-based cell-based high throughput dose response assay to identify inhibitors of COUP-TFII (NR2F2).; assay type: functional;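 also: HEK293 cells transiently cotransfected with COUP-TFII expression vector and reporter; luciferase reporter luminescence driven by COUP-TFII from the pX2-168 reporter plasmid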
T6 sequence (P24468 whole entry): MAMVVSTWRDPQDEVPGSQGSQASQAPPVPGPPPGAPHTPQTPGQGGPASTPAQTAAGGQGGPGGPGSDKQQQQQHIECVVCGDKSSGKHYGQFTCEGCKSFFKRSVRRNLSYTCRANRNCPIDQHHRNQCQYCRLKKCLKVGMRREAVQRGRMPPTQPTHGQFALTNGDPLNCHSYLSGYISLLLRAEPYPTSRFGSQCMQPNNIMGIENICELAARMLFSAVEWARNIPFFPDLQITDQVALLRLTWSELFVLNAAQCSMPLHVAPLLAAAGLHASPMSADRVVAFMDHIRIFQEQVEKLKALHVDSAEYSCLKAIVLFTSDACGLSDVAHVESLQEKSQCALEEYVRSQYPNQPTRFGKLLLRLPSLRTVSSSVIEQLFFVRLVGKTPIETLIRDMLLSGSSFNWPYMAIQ

[14] = biological target: T7, DNA repair protein RAD52 homolog (Homo sapiens, UniProt P43351); assay type: functional, biochemical
T7 sequence (P43351 whole entry): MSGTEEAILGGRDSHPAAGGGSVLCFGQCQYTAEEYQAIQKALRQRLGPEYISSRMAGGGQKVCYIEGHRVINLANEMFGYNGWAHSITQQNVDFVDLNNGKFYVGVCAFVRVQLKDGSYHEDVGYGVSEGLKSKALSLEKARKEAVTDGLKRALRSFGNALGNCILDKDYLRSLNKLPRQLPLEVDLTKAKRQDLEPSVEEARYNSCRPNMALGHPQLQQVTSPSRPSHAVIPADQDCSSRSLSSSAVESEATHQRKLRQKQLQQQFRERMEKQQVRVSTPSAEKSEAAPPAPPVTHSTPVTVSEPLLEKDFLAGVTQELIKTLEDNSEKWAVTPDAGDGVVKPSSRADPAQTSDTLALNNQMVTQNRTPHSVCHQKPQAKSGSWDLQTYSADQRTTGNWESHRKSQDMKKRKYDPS

[15] = inhibitors of intracellular T. cruzi replication, confirmation, NIH3T3 host cells, beta-gal luminescence (AID 2044); assay type: functional, cell-based;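 also: intracellular parasites grown in NIH/3T3 mouse fibroblasts as host cells; luminescent beta-galactosidase reporter signal from transgenic T. cruzi replicating inside host cells; inhibitors lower the luminescence signal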
Jurkat = assay: antigen receptor-induced NF-kB inhibitors, dose response, Jurkat, luciferase reporter, luminescence, B- and T-cell (AID 489004); assay type: functional, cell-based; details: Homo sapiens;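 also: NF-kB luciferase reporter Jurkat cells stimulated with PMA plus ionomycin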

ATP-dependent molecular chaperone HSP82, sequence (C4YTQ8 whole entry): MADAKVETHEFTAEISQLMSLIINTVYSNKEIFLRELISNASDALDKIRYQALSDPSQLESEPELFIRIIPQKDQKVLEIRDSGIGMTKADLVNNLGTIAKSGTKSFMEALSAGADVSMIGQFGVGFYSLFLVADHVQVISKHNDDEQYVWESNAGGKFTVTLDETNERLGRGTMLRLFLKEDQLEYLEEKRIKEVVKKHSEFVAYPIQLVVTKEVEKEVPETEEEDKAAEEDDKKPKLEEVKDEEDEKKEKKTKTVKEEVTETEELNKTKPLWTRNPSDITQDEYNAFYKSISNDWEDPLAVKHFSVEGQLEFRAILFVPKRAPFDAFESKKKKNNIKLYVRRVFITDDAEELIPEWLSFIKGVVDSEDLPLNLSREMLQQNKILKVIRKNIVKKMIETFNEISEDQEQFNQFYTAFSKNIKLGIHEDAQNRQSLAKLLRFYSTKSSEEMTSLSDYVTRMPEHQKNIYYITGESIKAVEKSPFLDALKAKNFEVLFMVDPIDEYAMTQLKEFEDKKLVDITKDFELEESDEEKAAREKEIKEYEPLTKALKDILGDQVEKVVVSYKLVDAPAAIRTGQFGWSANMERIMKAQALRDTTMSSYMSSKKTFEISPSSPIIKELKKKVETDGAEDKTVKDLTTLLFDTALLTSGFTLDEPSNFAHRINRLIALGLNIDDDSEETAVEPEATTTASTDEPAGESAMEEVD
Serine/threonine-protein phosphatase, sequence (B9W6M3 whole entry): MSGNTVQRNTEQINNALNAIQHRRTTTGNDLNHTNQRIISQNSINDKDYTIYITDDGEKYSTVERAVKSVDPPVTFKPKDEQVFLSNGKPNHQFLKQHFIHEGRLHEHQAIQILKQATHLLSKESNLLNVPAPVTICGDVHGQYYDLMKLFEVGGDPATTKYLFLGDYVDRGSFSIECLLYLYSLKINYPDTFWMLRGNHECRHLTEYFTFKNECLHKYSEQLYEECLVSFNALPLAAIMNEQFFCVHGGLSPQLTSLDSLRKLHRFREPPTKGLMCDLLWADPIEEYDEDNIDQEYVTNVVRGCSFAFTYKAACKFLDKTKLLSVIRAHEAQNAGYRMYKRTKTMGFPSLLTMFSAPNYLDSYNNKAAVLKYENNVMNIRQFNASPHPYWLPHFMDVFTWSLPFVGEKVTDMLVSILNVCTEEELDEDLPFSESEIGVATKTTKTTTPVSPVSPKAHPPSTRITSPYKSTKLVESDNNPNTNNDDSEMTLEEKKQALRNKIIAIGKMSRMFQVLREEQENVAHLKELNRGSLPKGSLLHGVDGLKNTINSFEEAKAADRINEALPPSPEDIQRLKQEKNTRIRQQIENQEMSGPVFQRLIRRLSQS
Beta-lactamase (Pseudomonas aeruginosa, UniProt Q79MP6), sequence (Q79MP6 whole entry): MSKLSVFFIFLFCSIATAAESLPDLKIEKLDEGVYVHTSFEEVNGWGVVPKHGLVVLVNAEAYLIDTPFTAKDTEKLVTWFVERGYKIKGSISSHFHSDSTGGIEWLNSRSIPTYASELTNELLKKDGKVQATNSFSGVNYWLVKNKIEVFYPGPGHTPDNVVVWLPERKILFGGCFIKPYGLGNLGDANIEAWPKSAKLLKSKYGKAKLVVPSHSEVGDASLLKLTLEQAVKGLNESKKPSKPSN
Beta-lactamase (Salmonella choleraesuis (strain SC-B67), UniProt Q5J463), sequence (Q5J463 whole entry): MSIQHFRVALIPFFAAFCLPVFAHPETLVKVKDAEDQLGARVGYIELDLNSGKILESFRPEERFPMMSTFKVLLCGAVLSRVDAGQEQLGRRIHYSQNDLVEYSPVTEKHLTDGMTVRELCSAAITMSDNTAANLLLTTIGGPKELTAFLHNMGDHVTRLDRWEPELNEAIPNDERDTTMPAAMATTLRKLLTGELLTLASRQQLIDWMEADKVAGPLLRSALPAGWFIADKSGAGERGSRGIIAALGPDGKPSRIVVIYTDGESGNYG

## CC(C)n1cc(/C=C/c2cc[n+](C)cc2)c2ccccc21
[1]
  EC50: > 150 µM (inactive)
Beta-lactamase [2]
  IC50: 41.8 µM (inactive)
Beta-lactamase [3]
  IC50: 40.1 µM (inactive)
[4]
  EC50: 130 µM (inconclusive)
[5]
  AC50: 8.14 µM (active)
[6]
  EC50: 0.634 µM (active)
[7]
  EC50: > 180 µM (inactive)

## Oc1ccc(Br)cc1/C=N/Nc1cc(N2CCCC2)nc(N2CCCC2)n1
[8]
  IC50: > 99 µM (inactive)
[9]
  IC50: > 99 µM (inactive)
Caspase-3
  IC50: > 99 µM (inactive)
[10]
  IC50: > 99 µM (inactive)

## CC[n+]1c(C=C2C=C(C)OC(C)=C2)sc2ccccc21
[11]
  IC50: > 80 µM (inactive)
[12]
  EC50: > 60 µM (not active)
[13]
  IC50: 4.51 µM (active)
[14]
  AC50: 8.17 µM (active)
[15]
  EC50: < 0.1 µM (active)
Jurkat
  IC50: 3.99 µM (active)
[1]
  EC50: 55.9 µM (active)
[4]
  EC50: 126 µM (active)
[6]
  EC50: 0.239 µM (active)
[7]
  EC50: 29.6 µM (active)
cells
  EC50: 0.006 µM (active)
